Patent US20110224136A1, “INHIBITORS OF DIACYLGLYCEROL ACYLTRANSFERASE” (priority 2008, published 2011)

Each molecule was assayed against T1, human DGAT1 enzyme (Homo sapiens, UniProt O75907) (assay: in vitro DGAT1 inhibition assay (microsomes, [14C]-palmitoyl-CoA, scintillation proximity)). Settings: human DGAT1 expressed in Sf9 insect cell microsomes; 2 hours at room temperature; read-out: hDGAT IC50.
T1 construct: made in house; host or cells: Sf9 insect cells (microsomes)
T1 sequence (O75907 1-488): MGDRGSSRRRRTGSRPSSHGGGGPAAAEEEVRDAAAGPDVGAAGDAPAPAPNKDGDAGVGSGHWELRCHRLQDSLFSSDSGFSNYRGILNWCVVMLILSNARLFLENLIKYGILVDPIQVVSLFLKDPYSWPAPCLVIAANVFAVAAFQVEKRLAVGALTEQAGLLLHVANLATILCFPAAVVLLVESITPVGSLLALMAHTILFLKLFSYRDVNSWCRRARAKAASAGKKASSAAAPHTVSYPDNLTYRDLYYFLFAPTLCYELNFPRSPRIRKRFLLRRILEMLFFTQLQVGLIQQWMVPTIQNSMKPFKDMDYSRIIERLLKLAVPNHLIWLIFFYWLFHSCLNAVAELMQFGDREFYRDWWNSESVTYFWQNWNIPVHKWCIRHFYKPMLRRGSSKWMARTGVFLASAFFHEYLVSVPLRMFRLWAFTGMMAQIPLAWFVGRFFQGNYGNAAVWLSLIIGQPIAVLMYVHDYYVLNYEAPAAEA
Type: biochemical
Experimental: A useful assay to determine the DGAT inhibitory activity of the inventive compounds is described below:
The in vitro assay to identify DGAT1 inhibitors uses human DGAT1 enzyme expressed in Sf9 insect cells prepared as microsomes. The reaction is initiated by the addition of the combined substrates 1,2-dioleoyl-sn-glycerol and [^14C]-palmitoyl-CoA and incubated with test compounds and microsomal membranes for 2 hours at room temperature. The assay is stopped by adding 0.5 mg wheat germ agglutinin beads in assay buffer with 1% Brij-35 and 1% 3-cholamidopropyldimethyl-ammonio-1-propane sulfonate. Plates are sealed with TopSeal and incubated for 18 hours to allow the radioactive triglyceride product to come into proximity with the bead. Plates are read on a TopCount instrument.
Percent inhibition was calculated as the percent of (test compound inhibition minus non-specific binding) relative to (total binding minus non-specific binding). IC50 values were determined by curve fitting the data to a Sigmoidal dose-response in GraphPad Prism utilizing the following equation:
Y=A+(B−A)/(1+10̂((Log IC50−X))),
where A and B are the bottom and top of the curve (highest and lowest inhibition), respectively, and X is the logarithm of concentration.
For `O=C(O)C[C@H]1CC[C@H](c2ccc(NC(=O)c3oc(N4CCC(c5ccccc5)CC4)nc3C(F)(F)F)cc2)CC1` [Compound 216, 2-((1r,4r)-4-(4-(2-(4-phenylpiperidin-1-yl)-4-(trifluoromethyl)oxazole-5-carboxamido)phenyl)cyclohexyl)acetic acid], the IC50 was 101 to 500 nM. Work on `CN(c1ncc(C(=O)Nc2ccc(N3CCN(C(=O)Nc4ccccc4F)CC3)nc2)c(C(F)(F)F)n1)C1CCCC1` [Compound 220, 2-(cyclopentyl(methyl)amino)-N-(6-(4-(2-fluorophenylcarbamoyl)piperazin-1-yl)pyridin-3-yl)-4-(trifluoromethyl)pyrimidine-5-carboxamide] yielded an IC50 of 101 to 500 nM. In the case of `Cc1ccccc1NC(=O)c1ccc(-c2ccc(NC(=O)c3oc(N4CCCC(C)C4)nc3C(F)(F)F)nc2)cc1` (stereo not shown) [Compound 227, 2-(3-methylpiperidin-1-yl)-N-(5-(4-(o-tolylcarbamoyl)phenyl)pyridin-2-yl)-4-(trifluoromethyl)oxazole-5-carboxamide], the IC50 is reported as 11 to 100 nM. `CC1CCCN(c2nc(C(F)(F)F)c(C(=O)Nc3ccc(-c4ccc(C(=O)O)nc4)cc3)o2)C1` (stereo not shown) [Compound 229, 5-(4-(2-(3-methylpiperidin-1-yl)-4-(trifluoromethyl)oxazole-5-carboxamido)phenyl)picolinic acid] was tested, and the IC50 was 101 to 500 nM. `Cc1ccccc1NC(=O)c1ccc(-c2ccc(NC(=O)c3oc(N4CCCC(C)C4)nc3C(F)(F)F)cc2)cn1` (stereo not shown) [Compound 232, 2-(3-methylpiperidin-1-yl)-N-(4-(6-(o-tolylcarbamoyl)pyridin-3-yl)phenyl)-4-(trifluoromethyl)oxazole-5-carboxamide] was tested, and the IC50 was 11 to 100 nM. With `CC1CCCN(c2nc(C(F)(F)F)c(C(=O)Nc3ccc(N4CCN(C(=O)Nc5ccccc5F)CC4)cn3)o2)C1` (stereo not shown) [Compound 236, N-(5-(4-(2-fluorophenylcarbamoyl)piperazin-1-yl)pyridin-2-yl)-2-(3-methylpiperidin-1-yl)-4-(trifluoromethyl)oxazole-5-carboxamide] the IC50 was 11 to 100 nM. Molecule `Cc1ccccc1NC(=O)c1ccc(-c2ccc(NC(=O)c3oc(N4CCCC(C)C4)nc3C(F)(F)F)cc2)nc1` (stereo not shown) [Compound 242, 2-(3-methylpiperidin-1-yl)-N-(4-(5-(o-tolylcarbamoyl)pyridin-2-yl)phenyl)-4-(trifluoromethyl)oxazole-5-carboxamide] has an IC50 of 11 to 100 nM. `CN(Cc1nc(C(F)(F)F)c(C(=O)Nc2ccc(N3CCN(C(=O)Nc4ccccc4F)CC3)nc2)s1)c1ccccc1` [Compound 247, N-(6-(4-(2-fluorophenylcarbamoyl)piperazin-1-yl)pyridin-3-yl)-2-((methyl(phenyl)amino)methyl)-4-(trifluoromethyl)thiazole-5-carboxamide] showed an IC50 of 101 to 500 nM. `Cc1ccccc1NC(=O)c1ccc(-c2ccc(NC(=O)c3sc(CN(C)c4ccccc4)nc3C(F)(F)F)nc2)cc1` [Compound 250, 2-((methyl(phenyl)amino)methyl)-N-(5-(4-(o-tolylcarbamoyl)phenyl)pyridin-2-yl)-4-(trifluoromethyl)thiazole-5-carboxamide] showed an IC50 of 101 to 500 nM. `CC1CCCN(c2nc(C(F)(F)F)c(C(=O)Nc3ccc(-c4ccc(C(=O)N5CCC(C(=O)O)CC5)cn4)cc3)o2)C1` (stereo not shown) [Compound 251, 1-(6-(4-(2-(3-methylpiperidin-1-yl)-4-(trifluoromethyl)oxazole-5-carboxamido)phenyl)nicotinoyl)piperidine-4-carboxylic acid] showed an IC50 of 101 to 500 nM. In the case of `O=C(Nc1ccc(N2CCN(C(=O)Nc3ccccc3F)CC2)nc1)c1sc(COc2ccccc2)nc1C(F)(F)F` [Compound 252, N-(6-(4-(2-fluorophenylcarbamoyl)piperazin-1-yl)pyridin-3-yl)-2-(phenoxymethyl)-4-(trifluoromethyl)thiazole-5-carboxamide], the IC50 is reported as 101 to 500 nM. Work on `O=C(Nc1ccc(N2CCN(C(=O)Nc3ccccc3F)CC2)nc1)c1sc(CSc2ccccc2)nc1C(F)(F)F` [Compound 253, N-(6-(4-(2-fluorophenylcarbamoyl)piperazin-1-yl)pyridin-3-yl)-2-(phenylthiomethyl)-4-(trifluoromethyl)thiazole-5-carboxamide] yielded an IC50 of 11 to 100 nM. Molecule `O=C(Nc1ccc(N[C@H]2CCN(C(=O)Nc3ccccc3F)C2)nc1)c1oc(N2CCC(c3ccccc3)CC2)nc1C(F)(F)F` [Compound 257, (S)—N-(6-(1-(2-fluorophenylcarbamoyl)pyrrolidin-3-ylamino)pyridin-3-yl)-2-(4-phenylpiperidin-1-yl)-4-(trifluoromethyl)oxazole-5-carboxamide] has an IC50 of 101 to 500 nM. In the case of `O=C(Nc1ccc(N[C@H]2CCN(C(=O)Nc3ccccc3F)C2)nc1)c1sc(N2CCC(c3ccccc3)CC2)nc1C(F)(F)F` [Compound 259, (S)—N-(6-(1-(2-fluorophenylcarbamoyl)pyrrolidin-3-ylamino)pyridin-3-yl)-2-(4-phenylpiperidin-1-yl)-4-(trifluoromethyl)thiazole-5-carboxamide], the IC50 is reported as 101 to 500 nM. `CC1CCCN(c2nc(C(F)(F)F)c(C(=O)Nc3ccc(N[C@H]4CCN(C(=O)c5ccccc5F)C4)nc3)o2)C1` (stereo partly drawn) [Compound 260, N-(6-((S)-1-(2-fluorobenzoyl)pyrrolidin-3-ylamino)pyridin-3-yl)-2-(3-methylpiperidin-1-yl)-4-(trifluoromethyl)oxazole-5-carboxamide] showed an IC50 of 101 to 500 nM. For `CC1CCCN(c2nc(C(F)(F)F)c(C(=O)Nc3ccc(O[C@@H]4CCN(C(=O)Nc5ccccc5F)C4)nc3)o2)C1` (stereo partly drawn) [Compound 263, N-(6-((R)-1-(2-fluorophenylcarbamoyl)pyrrolidin-3-yloxy)pyridin-3-yl)-2-(3-methylpiperidin-1-yl)-4-(trifluoromethyl)oxazole-5-carboxamide], the IC50 was 11 to 100 nM. `C[C@@H]1CN(c2ccc(NC(=O)c3oc(N4CCC(c5ccccc5)CC4)nc3C(F)(F)F)cn2)CCN1C(=O)Nc1ccccc1F` [Compound 266] was tested, and the IC50 was 11 to 100 nM. `O=C(Nc1ccc(N2CCN(C(=O)Nc3ccccc3F)CC2)nc1)c1oc(N2CC[C@H](c3ccccc3)C2)nc1C(F)(F)F` [Compound 270, (R)—N-(6-(4-(2-fluorophenylcarbamoyl)piperazin-1-yl)pyridin-3-yl)-2-(3-phenylpyrrolidin-1-yl)-4-(trifluoromethyl)oxazole-5-carboxamide] was tested, and the IC50 was 11 to 100 nM. With `O=C(Nc1ccc(N2CCN(C(=O)Nc3ccccc3F)CC2)nc1)c1oc(N2CCC(c3ccc(Cl)cc3)CC2)nc1C(F)(F)F` [Compound 273, 2-(4-(4-chlorophenyl)piperidin-1-yl)-N-(6-(4-(2-fluorophenylcarbamoyl)piperazin-1-yl)pyridin-3-yl)-4-(trifluoromethyl)oxazole-5-carboxamide] the IC50 was 11 to 100 nM. `O=C(Nc1ccc(N2CCN(C(=O)Nc3ccccc3F)CC2)nc1)c1oc(N2CCC(c3cccc(F)c3)C2)nc1C(F)(F)F` (stereo not shown) [Compound 279, 2-(3-(3-fluorophenyl)pyrrolidin-1-yl)-N-(6-(4-(2-fluorophenylcarbamoyl)piperazin-1-yl)pyridin-3-yl)-4-(trifluoromethyl)oxazole-5-carboxamide] gave an IC50 of 11 to 100 nM. Molecule `O=C(Nc1ccc(N2CCN(C(=O)c3ccccc3F)CC2)nc1)c1oc(N2CCC(c3ccccc3)CC2)nc1C(F)(F)F` [Compound 284, N-(6-(4-(2-fluorobenzoyl)piperazin-1-yl)pyridin-3-yl)-2-(4-phenylpiperidin-1-yl)-4-(trifluoromethyl)oxazole-5-carboxamide] has an IC50 of 101 to 500 nM. With `O=C(CN1CCN(c2ccc(NC(=O)c3oc(N4CCC(c5ccccc5)CC4)nc3C(F)(F)F)cn2)CC1)c1ccccc1F` [Compound 289, N-(6-(4-(2-(2-fluorophenyl)-2-oxoethyl)piperazin-1-yl)pyridin-3-yl)-2-(4-phenylpiperidin-1-yl)-4-(trifluoromethyl)oxazole-5-carboxamide] the IC50 was 101 to 500 nM. `O=C(O)c1ccccc1NC(=O)N1CCN(c2ccc(NC(=O)c3oc(N4CCC(c5ccccc5)CC4)nc3C(F)(F)F)cn2)CC1` [Compound 292, 2-(4-(5-(2-(4-phenylpiperidin-1-yl)-4-(trifluoromethyl)oxazole-5-carboxamido)pyridin-2-yl)piperazine-1-carboxamido)benzoic acid] gave an IC50 of 11 to 100 nM. For `O=C(Nc1ccc(N2CCN(C(=O)[C@H]3CC[C@H](C(=O)O)CC3)CC2)nc1)c1oc(N2CCC(c3ccccc3)CC2)nc1C(F)(F)F` [Compound 296, trans-4-(4-(5-(2-(4-phenylpiperidin-1-yl)-4-(trifluoromethyl)oxazole-5-carboxamido)pyridin-2-yl)piperazine-1-carbonyl)cyclohexanecarboxylic acid], the IC50 was 11 to 100 nM. With `CC1CCCN(c2nc(C(F)(F)F)c(C(=O)Nc3ccc(N4CCN(C(=O)Nc5ccccc5C(=O)O)CC4)nc3)o2)C1` (stereo not shown) [Compound 300, 2-(4-(5-(2-(3-methylpiperidin-1-yl)-4-(trifluoromethyl)oxazole-5-carboxamido)pyridin-2-yl)piperazine-1-carboxamido)benzoic acid] the IC50 was 11 to 100 nM.
